How the values were obtained:
[1] = target: T1, Glucocorticoid receptor (Homo sapiens, UniProt P04150)
T1 sequence (P04150 whole entry): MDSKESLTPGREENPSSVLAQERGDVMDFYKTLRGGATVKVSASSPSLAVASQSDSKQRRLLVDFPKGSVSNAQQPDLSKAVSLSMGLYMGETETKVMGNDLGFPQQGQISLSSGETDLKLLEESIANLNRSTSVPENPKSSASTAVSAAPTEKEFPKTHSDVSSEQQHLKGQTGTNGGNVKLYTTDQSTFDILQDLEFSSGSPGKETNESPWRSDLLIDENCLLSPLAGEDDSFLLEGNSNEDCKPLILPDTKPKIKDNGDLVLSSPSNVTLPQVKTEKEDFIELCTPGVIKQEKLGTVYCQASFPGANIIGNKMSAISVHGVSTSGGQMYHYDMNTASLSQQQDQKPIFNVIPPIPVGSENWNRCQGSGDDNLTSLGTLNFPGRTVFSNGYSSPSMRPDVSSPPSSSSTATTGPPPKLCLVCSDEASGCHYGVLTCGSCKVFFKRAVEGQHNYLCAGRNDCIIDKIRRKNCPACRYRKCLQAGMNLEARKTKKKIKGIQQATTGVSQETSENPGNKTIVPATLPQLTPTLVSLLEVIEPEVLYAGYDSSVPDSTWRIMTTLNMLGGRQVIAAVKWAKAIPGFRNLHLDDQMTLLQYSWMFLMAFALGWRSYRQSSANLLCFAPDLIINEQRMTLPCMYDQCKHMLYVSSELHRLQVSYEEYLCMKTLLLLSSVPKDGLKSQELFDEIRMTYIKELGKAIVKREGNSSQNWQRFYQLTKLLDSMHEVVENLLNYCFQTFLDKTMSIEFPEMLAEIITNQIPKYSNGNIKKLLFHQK

[2] = Selectivity ratio of pIC50 for androgen receptor to pIC50 for human glucocorticoid receptor
[3] = Selectivity ratio of pIC50 for estrogen receptor to pIC50 for human glucocorticoid receptor
[4] = Selectivity ratio of pIC50 for progesterone receptor to pIC50 for human glucocorticoid receptor

| SMILES | IC50 [1] [nM] | Ratio pIC50 [2] | Ratio pIC50 [3] | Ratio pIC50 [4] |
| --- | --- | --- | --- | --- |
| CCC1(CC(O)(CNC(=O)c2cnn(-c3ccccc3)c2N)C(F)(F)F)CCCc2ccccc21 (racemic) | 1.58 |  |  |  |
| CCN(CC(O)(CNc1cccc2c1cnn2-c1ccc(F)cc1)C(F)(F)F)C(=O)c1c(C)cccc1C (racemic) | 0.501 | > 50 | > 50 | > 50 |
| CCN(CC(O)(CNc1cccc2c1cnn2-c1ccc(F)cc1)C(F)(F)F)C(=O)c1ccccc1F (racemic) [listing 1 of 2 here] | 0.2 |  |  |  |
| CCN(CC(O)(CNc1cccc2c1cnn2-c1ccc(F)cc1)C(F)(F)F)C(=O)c1ccccc1C (racemic) | 0.316 | > 50 | > 50 | > 50 |
| CCN(CC(O)(CNc1cccc2c1cnn2-c1ccc(F)cc1)C(F)(F)F)C(=O)c1c(Cl)cccc1Cl (racemic) [listing 1 of 2 here] | 0.126 |  |  |  |
| CCN(CC(O)(CNc1cccc2c1cnn2-c1ccc(F)cc1)C(F)(F)F)C(=O)c1c(F)cccc1F (racemic) | 0.316 | > 50 | > 50 | > 50 |
| CCCN(CC(O)(CNc1cccc2c1cnn2-c1ccccc1)C(F)(F)F)C(=O)c1ccccc1 (racemic) | 3.16 | > 50 | > 50 | > 50 |
| CCN(CC(O)(CNc1cccc2c1cnn2-c1ccccc1)C(F)(F)F)C(=O)c1ccccc1F (racemic) | 0.316 | > 50 | > 50 | > 50 |
| CCN(CC(O)(CNc1cccc2c1cnn2-c1ccccc1)C(F)(F)F)S(=O)(=O)c1ccc(F)cc1 (racemic) | 7.94 | > 50 | > 50 | > 50 |
| CCN(CC(O)(CNc1cccc2c1cnn2-c1ccccc1)C(F)(F)F)S(=O)(=O)c1ccccc1 (racemic) | 2.51 | > 50 | > 50 | > 50 |
| CN(CC(O)(CNc1cccc2c1cnn2-c1ccccc1)C(F)(F)F)C(=O)c1ccccc1 (racemic) | 5.01 | > 50 | > 50 | > 50 |
| CCN(CC(O)(CNc1cc(C)cc2c1cnn2-c1ccccc1)C(F)(F)F)C(=O)c1ccccc1 (racemic) | 0.398 | > 50 | > 50 | > 50 |
| CCN(CC(O)(CNc1cc(C)cc2c1cnn2-c1ccccc1)C(F)(F)F)C(=O)c1ccccc1F (racemic) | 0.251 | > 50 | > 50 | > 50 |
| CCN(CC(O)(CNc1cccc2c1cnn2-c1ccc(F)cc1)C(F)(F)F)C(=O)c1ccccc1 (racemic) | 0.794 | > 50 | > 50 | > 50 |
| CCN(CC(O)(CNc1cc(C)cc2c1cnn2-c1ccc(F)cc1)C(F)(F)F)C(=O)c1ccccc1 (racemic) | 0.398 | > 50 | > 50 | > 50 |
| CCN(CC(O)(CNc1nc(C)nc2c1cnn2-c1ccccc1)C(F)(F)F)S(=O)(=O)c1ccc(F)cc1 (racemic) | 25.1 | > 50 | > 50 | > 50 |
| CCN(CC(O)(CNc1cccc2c1cnn2-c1ccccc1)C(F)(F)F)C(=O)c1ccccc1 (racemic) | 0.794 | > 50 | > 50 | > 50 |
| CCN(CC(O)(CNc1cccc2c1cnn2-c1ccc(F)cc1)C(F)(F)F)C(=O)c1ccccc1Cl (racemic) | 0.251 | > 50 | > 50 | > 50 |
| CCN(CC(O)(CNc1cc(C)cc2c1cnn2-c1ccc(F)cc1)C(F)(F)F)C(=O)c1ccccc1F (racemic) | 0.2 | > 50 | > 50 | > 50 |
| CCN(CC(O)(CNC(=O)c1cnn(-c2ccccc2)c1N)C(F)(F)F)S(=O)(=O)c1ccc(F)cc1 (racemic) | 31.6 | > 50 | > 50 | > 50 |
| CCN(CC(O)(CNc1cccc2c1cnn2-c1ccc(F)cc1)C(F)(F)F)C(=O)c1c(Cl)cccc1Cl (racemic) [listing 2 of 2 here] |  | > 50 | > 50 | > 50 |
| CCN(CC(O)(CNc1cccc2c1cnn2-c1ccc(F)cc1)C(F)(F)F)C(=O)c1ccccc1F (racemic) [listing 2 of 2 here] |  | > 50 | > 50 | > 50 |
| CCN(CC(O)(CNc1cccc2c1cnn2-c1ccc(F)cc1)C(F)(F)F)C(=O)c1ccccc1F (stereo in doubt; 32E1) [listing 1 of 2 here] | 0.126 |  |  |  |
| CCN(CC(O)(CNc1cccc2c1cnn2-c1ccc(F)cc1)C(F)(F)F)C(=O)c1ccccc1F (stereo in doubt; 32E1) [listing 2 of 2 here] |  | > 50 | > 50 | > 50 |
| CCN(CC(O)(CNc1cccc2c1cnn2-c1ccc(F)cc1)C(F)(F)F)C(=O)c1ccccc1F (stereo in doubt; 32E2) [listing 1 of 2 here] | 31.6 |  |  |  |
| CCN(CC(O)(CNc1cccc2c1cnn2-c1ccc(F)cc1)C(F)(F)F)C(=O)c1ccccc1F (stereo in doubt; 32E2) [listing 2 of 2 here] |  | > 50 | > 50 | > 50 |
| CCN(CC(O)(CNc1cccc2c1cnn2-c1ccc(F)cc1)C(F)(F)F)C(=O)c1c(Cl)cccc1Cl (stereo in doubt; 38E1) [listing 1 of 2 here] | 0.0794 |  |  |  |
| CCN(CC(O)(CNc1cccc2c1cnn2-c1ccc(F)cc1)C(F)(F)F)C(=O)c1c(Cl)cccc1Cl (stereo in doubt; 38E1) [listing 2 of 2 here] |  | > 50 | > 50 | > 50 |
| CCN(CC(O)(CNc1cccc2c1cnn2-c1ccc(F)cc1)C(F)(F)F)C(=O)c1c(Cl)cccc1Cl (stereo in doubt; 38E2) [listing 1 of 2 here] | 10 |  |  |  |
| CCN(CC(O)(CNc1cccc2c1cnn2-c1ccc(F)cc1)C(F)(F)F)C(=O)c1c(Cl)cccc1Cl (stereo in doubt; 38E2) [listing 2 of 2 here] |  | > 50 | > 50 | > 50 |

From ChEMBL document CHEMBL1153077, “Highly tractable, sub-nanomolar non-steroidal glucocorticoid receptor agonists” (Bioorg Med Chem Lett, 2009)
